Results: ChEMBL document CHEMBL4354781, “Drug-resistance in Mycobacterium tuberculosis: where we stand” (2019)
≈ marks a conversion by molar mass, not a printed value.

Columns and labels:
Assay type in all cases: functional
[1] = tested on: Mycobacterium tuberculosis; experiment: Antitubercular activity against Mycobacterium tuberculosis H37Rv ATCC 35838
[2] = tested on: Mycobacterium tuberculosis; experiment: Antitubercular activity against Mycobacterium tuberculosis Kurono ATCC 35812
[3] = tested on: Mycobacterium tuberculosis; experiment: Antitubercular activity against Mycobacterium tuberculosis H37Rv ATCC 35822
[4] = tested on: Mycobacterium tuberculosis; experiment: Antitubercular activity against Mycobacterium tuberculosis H37Rv ATCC 25618
[5] = tested on: Mycobacterium tuberculosis; experiment: Antitubercular activity against Mycobacterium tuberculosis H37Rv ATCC 35837
[6] = tested on: Mycobacterium tuberculosis; experiment: Antitubercular activity against Mycobacterium tuberculosis H37Rv ATCC 35820
[7] = tested on: Mycobacterium tuberculosis; experiment: Antitubercular activity against Mycobacterium tuberculosis by radiometric analysis
[8] = tested on: Mycobacterium tuberculosis; experiment: Antitubercular activity against Mycobacterium tuberculosis XDR

For `C[C@]1(COc2ccc(N3CCC(Oc4ccc(OC(F)(F)F)cc4)CC3)cc2)Cn2cc([N+](=O)[O-])nc2O1` [DELAMANID], the MIC [1] was 0.006 to 0.024 µg/mL (≈ 0.0112 to 0.0449 µM), the MIC [2] was 0.006 to 0.024 µg/mL (≈ 0.0112 to 0.0449 µM) and the MIC [3] was 0.006 to 0.024 µg/mL (≈ 0.0112 to 0.0449 µM). For the same compound, the MIC [4] was 0.006 to 0.024 µg/mL (≈ 0.0112 to 0.0449 µM), the MIC [5] was 0.006 to 0.024 µg/mL (≈ 0.0112 to 0.0449 µM) and the MIC [6] was 0.006 to 0.024 µg/mL (≈ 0.0112 to 0.0449 µM).

In the case of `O=[N+]([O-])c1cn2c(n1)OC[C@@H](OCc1ccc(OC(F)(F)F)cc1)C2` [PRETOMANID], the MIC [7] is reported as 0.015 to 0.25 µg/mL (≈ 0.0418 to 0.696 µM).

In the case of `CC(=O)NC[C@H]1CN(c2ccc(N3CCOCC3)c(F)c2)C(=O)O1` [LINEZOLID], the MIC [8] is reported as 0.125 to 0.5 µg/mL (≈ 0.371 to 1.48 µM).
